Data set [1] relates to S. mutans comC mutant SMdC (indicator strain Streptococcus sanguinis SK108). The experiment in a line: QS-controlled bacteriocin production, agar plate overlay assay. It counts as cell-based. As to conditions: for level of bacteriocins induced compared with wild-type GS5: comC mutant SMdC with peptide, inhibitory zone against S. sanguinis SK108, Figure 5. Here is the method:
The S. mutans comC mutant SMdC as well as its parent GS5 and wild-type strain UA159 (positive controls) were used to assay for bacteriocin production using a modified agar plate method. Briefly, an aliquot of mid-log phase cells of the S. mutans wild-type strains and mutant SMdC grown under a condition with or without use of CSP or a test peptide were stabbed onto THYE agar plates. The plates were incubated anaerobically at 37°C for 6 h before carefully overlaid with 100 μL of cell suspension (about 10^6 CFU/mL^-1) of an indicator strain Streptococcus sanguinis SK108. The plates were further incubated anaerobically at 37°C for 24 h before inspection of bacteriocin production. The S. mutans strains showing an inhibitory zone around the stabs were scored as positive for bacteriocin production. The plates were then photographed for records.

Data set [2] concerns nlmAB promoter (PnlmAB::lacZ) in comC mutant SMdC. The data set is described as follows: nlmAB-lacZ reporter β-gal activity, strain SMdC-PnlmAB. It counts as cell-based, Streptococcus mutans. The conditions noted are these: for time for which the high level of β-gal activity is maintained / time of highest level of β-gal activity after addition of peptide: SMdC-PnlmAB, time-course experiment. The source says: (§1) To assay QS activation in response to addition of a peptide, we constructed two types of lacZ transcriptional reporter strains that represented two levels of QS-activated gene expression. The first was a lacZ reporter gene fused to the comDE promoter, which allowed monitoring of the activity of the comDE promoter in response to a test peptide. The second strain was a lacZ reporter gene fused to the promoter of nlmAB, the gene encoding a nonlantibiotic bacteriocin and its expression directly controlled by the ComE [6, 22]. This strain allowed assay of comDE-controlled bacteriocin production.
For the second reporter strain, we generated a chromosomal nlmAB–lacZ fusion strain by transforming a PnlmAB::lacZ fusion construct pOMZ47 [6] into both comC mutant SMdC and wild-type GS5. The resulting reporter strains were confirmed by PCR and sequencing of the fusion sites as described previously. The confirmed reporter strains were respectively named SMdC-PnlmAB (PnlmAB::lacZ, comC^-, Kan^r, Spec^r) and SMGS5-PnlmAB (PnlmAB::lacZ, Kan^r). The strain SMGS5-PnlmAB was used a positive control.
A lacZ reporter assay was performed to monitor quorum-sensing activation using the same method as described previously. The newly constructed lacZ reporter strains were used to assay and quantify β-galactosidase activity in response to test peptides. Aliquots of samples were taken to prepare cell lysates at different time points T0, T15, T30, T60, and T120 after addition of a test peptide. Protein concentrations of the supernatants were determined by Bio-Rad protein assay (Bio-Rad). Specific β-gal activities (A420 min^-1 mL^-1 mg^-1 protein) were calculated from triplicate samples from two independent experiments. The data from the β-gal activity experiments were then normalized against negative or background controls and plotted as percentages of maximal activation versus log peptide concentrations. The half maximal activation concentration (AC50) was determined from the sigmoidal dose–response curve using Prism 4 (Graphpad, San Diego, CA, USA).

Data set [3] deals with comDE promoter (PcomDE::lacZ) in comC mutant SMdC. The experiment in a line: comDE-lacZ reporter β-gal activity, strain SMdC-pYH2. It counts as cell-based, Streptococcus mutans. As to conditions: background control SMdC-pSL showed no significant difference.
Description: as §1
For the first reporter strain, we simply transformed previously constructed vector pYH2 [10] into the comC mutant (SMdC) to generate SMdC-pYH2 (PcomDE::lacZ, comC^-, Spec^r, Kan^r). pYH2 was constructed in such a way that the comDE promoter was fused to a promoterless lacZ gene on the backbone of Streptococcus–Escherichia coli shuttle vector pSL. […] These strains were then assessed for lacZ reporter activity in response to addition of peptides.
A lacZ reporter assay was performed to monitor quorum-sensing activation using the same method as described previously. The newly constructed lacZ reporter strains were used to assay and quantify β-galactosidase activity in response to test peptides. […] Protein concentrations of the supernatants were determined by Bio-Rad protein assay (Bio-Rad). […]

For data set [4] the test system is unchanged. As to conditions: SMdC-pYH2; cited from earlier work. Here is the method: We also used this mutant (SMdC) as a host to generate two types of lacZ transcriptional reporter fusion strains to assay the promoter activity of QS-controlled target genes, comDE and nlmAB, in response to addition of CSP. The lacZ reporter strain, SMdC-pYH2 (PcomDE::lacZ, comC^-, Spec^r, Kan^r), along with its background control strain SMdC-pSL (comC^-, Spec^r, Kan^r) were then assayed for β-galactosidase activity.

For data set [5] the following is noted: aqueous buffer 50 mM K2HPO4/KH2PO4 pH 7.0; NMR needs 1.0 to 10 mM peptide.
Description: For NMR studies, buffers, co-solvents, and additives were hydrogen-free or deuterated. Samples could be dissolved in as little as 10 μL, but typically, spectrometers were designed for sample volumes of at least 500 μL. Due to the inherently low sensitivity, concentrations of peptides ranged from 1.0 to 10 mM [13].
In our study, synthetic peptides CSP (UA159sp) and TPC3 for CD and NMR were dissolved in 95/5/0%, 70/0/30%, 30/0/70%, or 0/0/100% aqueous buffer/D2O/TFE-d2, or 95/5 aqueous buffer/D2O with 300 mM DPC-d38 (98 atom %D), where TFE refers to trifluoroethanol and DPC-d38 refers to perdeuterated dodecylphosphocholine [10, 13]. The aqueous buffer used for sample preparation contained 50 mM K2HPO4/KH2PO4 at pH 7.0. The concentration of peptides for solutions containing 100% TFE-d2 or DPC-d38 was 2 and 5 mM.
The test system of data set [6] is S. mutans comC mutant SMdC. The experiment in a line: CSP-dependent transformation (genetic competence) assay. The conditions noted are these: data not shown. Type of data set: cell-based, Streptococcus mutans. The text has this:
To determine if synthetic peptides activated quorum sensing for induction of genetic competence, we used the comC deletion mutant that was unable to produce, but still responded to CSP, to assay peptide-dependent genetic transformation using the method as described previously. A streptococcal suicide vector pVA-gtfA, which harbored a 2.4-kb fragment of the S. mutans gtfA gene and an erythromycin resistance marker, was used as transforming DNA. The wild-type GS5 was used as a positive control, while both ComC (SMdC) and ComE mutants (SMdE) were used as negative controls. The wild-type strain was grown on Todd–Hewitt yeast extract (THYE) medium, whereas the mutants were maintained on THYE plus spectinomycin. When culture reached to early mid-log phase (OD600 ≈ 0.25), an aliquot of CSP was added into the culture at a final concentration of 50 nM (AC50 ≈ 0.25 nM). […] Transformation frequency was expressed as percentage of transformants against total viable recipient cells per milliliter cell suspension. […]
7. All the plates are incubated at 37°C for 2 days before assessment of transformation frequency, which is expressed as percentages of transformants (erythromycin-resistant colonies) against total recipient cells per […] cell suspension. […]

For data set [7], the target named is quorum sensing (ComCDE signaling) in S. mutans lacZ reporter strains (Streptococcus mutans serotype c, UniProt Q8DS94). The conditions noted are these: truncated peptides; cited from earlier work. The source says:
Based on the three-dimensional structures of S. mutans wild-type signaling peptide UA159sp (CSP) and C-terminally truncated peptide TPC3 from mutant JH1005 defective in genetic competence, we designed and synthesized a series of truncated peptides and peptides with amino acid substitutions. […] The C-terminal structural motif consisting of a sequence of polar hydrophobic charged residues is crucial for activating the signal transduction pathway, while the core α-helical structure ext ...

Peptide text beside a SMILES is read from it.

The source of these data is PMC3055912, “A Method for Structure–Activity Analysis of Quorum-Sensing Signaling Peptides from Naturally Transformable Streptococci” (Biological Procedures Online, 2009).

Chain of quorum sensing (ComCDE signaling) in S. mutans lacZ reporter strains (Q8DS94 entry or part of it): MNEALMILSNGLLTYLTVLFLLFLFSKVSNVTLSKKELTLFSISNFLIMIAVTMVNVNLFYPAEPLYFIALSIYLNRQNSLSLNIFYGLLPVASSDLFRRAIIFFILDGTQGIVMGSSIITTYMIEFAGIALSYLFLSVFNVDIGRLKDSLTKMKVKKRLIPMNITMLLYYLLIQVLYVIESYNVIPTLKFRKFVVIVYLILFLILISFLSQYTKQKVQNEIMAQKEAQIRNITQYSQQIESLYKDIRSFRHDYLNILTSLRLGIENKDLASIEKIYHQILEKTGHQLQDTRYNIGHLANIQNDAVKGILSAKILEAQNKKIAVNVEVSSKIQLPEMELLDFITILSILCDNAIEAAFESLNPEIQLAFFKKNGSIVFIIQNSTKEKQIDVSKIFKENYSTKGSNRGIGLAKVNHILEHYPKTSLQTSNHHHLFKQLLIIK

Turning to `CC(C)C[C@H](NC(=O)[C@H](C)NC(=O)[C@H](CCC(N)=O)NC(=O)[C@@H](NC(=O)[C@H](Cc1ccccc1)NC(=O)[C@H](CO)NC(=O)[C@H](CCCNC(=N)N)NC(=O)[C@H](CC(N)=O)NC(=O)[C@H](Cc1ccccc1)NC(=O)[C@H](CC(C)C)NC(=O)[C@H](CCCNC(=N)N)NC(=O)[C@H](Cc1ccccc1)NC(=O)[C@H](Cc1ccccc1)NC(=O)[C@@H](NC(=O)[C@H](CO)NC(=O)[C@H](CC(C)C)NC(=O)[C@H](CO)NC(=O)CNC(=O)[C@@H](N)CO)[C@@H](C)O)[C@@H](C)O)C(=O)NCC(=O)N[C@@H](CCCCN)C(=O)O` [CSP (UA159sp), reference compound] (H-SGSLSTFFRLFNRSFTQALGK-OH), in data set [1], the “level of bacteriocins induced compared with wild-type GS5” value was “induce the same level of bacteriocins as GS5”. Moreover, in data set [2], the “time for which the high level of β-gal activity is maintained” value is “at least 2 h” and the “time of highest level of β-gal activity after addition of peptide” value is “around 90 min”. Also, the “induction of β-gal activity upon addition of peptide” value in data set [3] is “induced to express predicted β-gal activity”. Moreover, the “time after addition at which expression of β-gal activity declined” value in data set [4] is reported as “around 40 min”. Moreover, the “solubility in water for NMR” value in data set [5] is recorded as “not soluble enough for extensive NMR studies”.

With `CC(C)C[C@H](NC(=O)[C@H](C)NC(=O)[C@H](CCC(N)=O)NC(=O)[C@@H](NC(=O)[C@H](Cc1ccccc1)NC(=O)[C@H](CO)NC(=O)[C@H](Cc1ccccc1)NC(=O)[C@H](CC(N)=O)NC(=O)[C@H](Cc1ccccc1)NC(=O)[C@H](CC(C)C)NC(=O)[C@H](CCCNC(=N)N)NC(=O)[C@H](Cc1ccccc1)NC(=O)[C@H](Cc1ccccc1)NC(=O)[C@@H](NC(=O)[C@H](CO)NC(=O)[C@H](CC(C)C)NC(=O)[C@@H](N)CO)[C@@H](C)O)[C@@H](C)O)C(=O)NCC(=O)O` [SPA-18] (H-SLSTFFRLFNFSFTQALG-OH; N-terminus and C-terminus assumed), the “replacement of CSP in inducing bacteriocin production” value in data set [1] (Figure 5) is listed as “could completely replace CSP (UA159sp)”. In addition, in data set [1], the “level of bacteriocins induced compared with wild-type GS5” value is given as “induce the same level of bacteriocins as GS5”. Moreover, in data set [2], the “time for which the high level of β-gal activity is maintained” value is reported as “at least 2 h” and the “time of highest level of β-gal activity after addition of peptide” value is “around 90 min”. The “replacement of CSP in activating quorum sensing” value in data set [2] (β-gal activity of SMdC-PnlmAB, Figure 4) is on record as “could completely replace CSP (UA159sp)”. Further, the “replacement of CSP in inducing genetic competence” value in data set [6] was “could completely replace CSP (UA159sp)”.

Consider `CC(C)C[C@H](NC(=O)[C@H](C)NC(=O)[C@H](CCC(N)=O)NC(=O)[C@@H](NC(=O)[C@H](Cc1ccccc1)NC(=O)[C@H](CO)NC(=O)[C@H](CCCNC(=N)N)NC(=O)[C@H](CC(N)=O)NC(=O)[C@H](Cc1ccccc1)NC(=O)[C@H](CC(C)C)NC(=O)[C@H](CCCNC(=N)N)NC(=O)[C@H](Cc1ccccc1)NC(=O)[C@H](Cc1ccccc1)NC(=O)[C@@H](NC(=O)[C@H](CO)NC(=O)[C@H](CC(C)C)NC(=O)[C@H](CO)NC(=O)CNC(=O)[C@@H](N)CO)[C@@H](C)O)[C@@H](C)O)C(=O)NCC(=O)O` [TPC1] (H-SGSLSTFFRLFNRSFTQALG-OH; N-terminus and C-terminus assumed), for which, in data set [7], the “agonist function, AC50 compared with CSP” value is listed as “functioned as agonists with AC50 values similar to CSP”.

In the case of `CC(C)C[C@H](NC(=O)[C@H](CCCNC(=N)N)NC(=O)[C@H](Cc1ccccc1)NC(=O)[C@H](Cc1ccccc1)NC(=O)[C@@H](NC(=O)[C@H](CO)NC(=O)[C@H](CC(C)C)NC(=O)[C@@H](NC(=O)CNC(=O)[C@@H](N)CO)[C@@H](C)O)[C@@H](C)O)C(=O)N[C@@H](Cc1ccccc1)C(=O)N[C@@H](CC(N)=O)C(=O)N[C@@H](CCCNC(=N)N)C(=O)N[C@@H](CO)C(=O)N[C@@H](Cc1ccccc1)C(=O)N[C@H](C(=O)N[C@@H](CCC(N)=O)C(=O)N[C@@H](C)C(=O)O)[C@@H](C)O` [TPC3 (JH1005sp)] (H-SGTLSTFFRLFNRSFTQA-OH), the “solubility in water for NMR” value in data set [5] was “not soluble enough for extensive NMR studies”.

As for `CC(C)C[C@H](NC(=O)[C@H](C)NC(=O)[C@H](CCC(N)=O)NC(=O)[C@@H](NC(=O)[C@H](Cc1ccccc1)NC(=O)[C@H](CO)NC(=O)[C@H](CCCNC(=N)N)NC(=O)[C@H](CC(N)=O)NC(=O)[C@H](Cc1ccccc1)NC(=O)[C@H](CC(C)C)NC(=O)[C@H](CCCNC(=N)N)NC(=O)[C@H](Cc1ccccc1)NC(=O)[C@H](Cc1ccccc1)NC(=O)[C@@H](NC(=O)[C@H](CO)NC(=O)[C@H](CC(C)C)NC(=O)[C@@H](N)CO)[C@@H](C)O)[C@@H](C)O)C(=O)NCC(=O)N[C@@H](CCCCN)C(=O)O` [TPN2] (H-SLSTFFRLFNRSFTQALGK-OH; N-terminus and C-terminus assumed), the “agonist function, AC50 compared with CSP” value in data set [7] was “functioned as agonists with AC50 values similar to CSP”.
